Like-named read-outs stand apart in the source and are kept apart here.
Tests used:
Type in all cases: biochemical
[1] = biological target: T1, Pyruvate decarboxylase from Saccharomyces cerevisiae (Saccharomyces cerevisiae, UniProt P06169); assay: Inactivation of pyruvate decarboxylase (PDC)
T1 construct: made in house; host or cells: E. coli
T1 sequence (P06169 2-563 limits assumed): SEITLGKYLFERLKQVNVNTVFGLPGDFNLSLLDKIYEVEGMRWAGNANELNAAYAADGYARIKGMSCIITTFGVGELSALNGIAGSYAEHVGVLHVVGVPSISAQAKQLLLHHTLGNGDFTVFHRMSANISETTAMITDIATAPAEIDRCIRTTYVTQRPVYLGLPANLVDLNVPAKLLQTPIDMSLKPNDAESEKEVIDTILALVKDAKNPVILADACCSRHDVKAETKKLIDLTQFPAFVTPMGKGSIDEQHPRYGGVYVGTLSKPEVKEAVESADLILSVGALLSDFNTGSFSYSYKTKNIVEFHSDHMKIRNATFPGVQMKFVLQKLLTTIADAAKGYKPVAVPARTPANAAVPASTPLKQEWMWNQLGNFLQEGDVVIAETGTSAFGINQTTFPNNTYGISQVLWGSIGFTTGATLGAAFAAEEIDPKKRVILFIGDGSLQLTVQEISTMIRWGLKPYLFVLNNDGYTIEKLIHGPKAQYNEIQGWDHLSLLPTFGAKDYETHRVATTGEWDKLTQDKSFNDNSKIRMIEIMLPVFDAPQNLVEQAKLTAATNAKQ
Method: Pyruvate decarboxylase from Saccharomyces cerevisiae was overexpressed in E. coli (Baburina et al., 1994), then purified according to Farrenkopf & Jordan (1992). It was assayed spectrophotometrically by coupling to alcohol dehydrogenase (Holzer et al., 1960).

PDHc = PDHc (Escherichia coli, UniProt P0AFG8); assay: Steady-state kinetics of PDHc, Km / [S]0.5 for pyruvate; design: made in house; host or cells: E. coli JRG1342 (PDHc null), Ptac plasmid pGS523; details: 3-lip PDHc; 0.22 mM without reagent
Method: Activity and related measurements on PDHc. The overall enzymatic reaction of the PDH complex was assayed using a Varian DMS 300 spectrophotometer or the Cobas Bio (Roche Diagnostics, Somerville, N.J.) automated centrifugal analyzer, monitoring the pyruvate-dependent reduction of NAD^+ at 340 nm. The reaction medium contained in 1 mL (DMS 300) or 0.25 mL (Cobas-Bio) test volume: 0.1 M Tris-HCl, pH 8.0; 1 mM MgCl2; 2 mM sodium pyruvate; 2.5 mM NAD^+; 0.052-0.2 mM coenzyme A; 0.2 mM ThDP; and 2.6 mM DTT at 27° C. The reaction was initiated either by adding enzyme to a mixture of all other components, or by adding CoA.
The Michaelis-Menten constants (Km) for native PDHc and PDHc treated with 2-oxo-3-butynoic acid and 2-oxo-3-heptynoic acid were obtained by fitting steady-state rates at different pyruvate concentrations to the Hill equation and the logarithmic form of the Hill equation using the Delta Graph (Pro4) computer program.

[2] = biological target: T2, Pyruvate oxidase from Lactobacillus plantarum (Lactiplantibacillus plantarum, UniProt P37063); assay: Inactivation of pyruvate oxidase (POX); details: for kinact/KI: read-out: kc/Ki,c (converted)
T2 construct: purchased Boehringer Mannheim (a gift, not bought)
T2 sequence (P37063 1-603): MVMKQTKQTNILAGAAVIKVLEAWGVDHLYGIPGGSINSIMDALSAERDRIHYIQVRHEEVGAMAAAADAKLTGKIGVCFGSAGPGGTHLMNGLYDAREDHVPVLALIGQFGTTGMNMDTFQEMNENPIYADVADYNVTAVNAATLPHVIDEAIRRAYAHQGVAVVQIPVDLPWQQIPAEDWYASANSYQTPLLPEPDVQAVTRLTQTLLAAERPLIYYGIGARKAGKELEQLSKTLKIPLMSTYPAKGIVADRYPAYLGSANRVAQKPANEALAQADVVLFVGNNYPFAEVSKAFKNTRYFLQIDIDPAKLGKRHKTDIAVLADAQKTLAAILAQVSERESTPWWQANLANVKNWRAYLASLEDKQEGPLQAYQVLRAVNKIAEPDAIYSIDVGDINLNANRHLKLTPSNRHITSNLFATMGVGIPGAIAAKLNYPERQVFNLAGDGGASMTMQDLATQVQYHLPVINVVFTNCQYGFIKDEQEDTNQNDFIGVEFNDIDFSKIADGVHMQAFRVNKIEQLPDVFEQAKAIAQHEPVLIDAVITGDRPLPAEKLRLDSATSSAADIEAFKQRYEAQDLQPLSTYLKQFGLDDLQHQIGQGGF
Method: Pyruvate oxidase from Lactobacillus plantarum was a gift from Boehringer Mannheim and was assayed according to the manufacturer's instructions at 25° C. by measuring the rate of 4-quinonimine production from H2 O2, 3,5-dichlorophenolsulfonic acid and 4-aminoantipyrine in the presence of horseradish peroxidase, at 546 nm, using a Cobas-Bio (Roche Diagnostics, Somerville, N.J.) automated centrifugal analyzer. The assay reaction mixture (total vol. 0.25 mL) contained: 40 mM sodium pyruvate; 50 mM potassium phosphate buffer, pH 6.5 with 10% (v/v) glycerol; 6.8 mM 3,5-dichlorophenolsulfonic acid; 0.03% of 4-aminoantipyrine; and 5u/mL of horseradish peroxidase. The reaction was initiated by adding POX.

[3] = PDC, catalytic site, read-out: Ki,c

| SMILES | inhibition / inactivation of PDC (in words) [1] | saturation by inhibitor ([1]; PDC) | Ki [1, 3] [µM] | kinact ([1]; PDC, read-out: ki (converted)) [s⁻¹] | kinact/KI ([1]; read-out: kc/Ki,c, PDC) [M⁻¹ s⁻¹] | [S]0.5 for pyruvate in the presence of / after treatment with inhibitor (PDHc) [mM] | inhibition / inactivation of POX (in words) [2] | saturation by inhibitor ([2]; POX) | further results |
| --- | --- | --- | --- | --- | --- | --- | --- | --- | --- |
| CCCC#CC(=O)C(=O)O [2-oxo-3-heptynoic acid, 2-Oxo-3-heptynoic acid] | inhibit | yes | 447 | 0.01 | 22.5 | 0.234 ± 0.025 | inhibit | no | saturation by inhibitor ([1]; PDC (+50 mM pyruvamide)): yes; Ki ([1]; PDC (+50 mM pyruvamide), read-out: Ki,c): 59.7 µM; Ki ([1]; PDC (+50 mM pyruvamide), read-out: Ki,r): 382 µM; kinact ([1]; PDC (+50 mM pyruvamide), read-out: ki (converted)): 0.00523 s⁻¹; Ki ([1]; PDC, regulatory site, read-out: Ki,r): 921 µM; kinact/KI ([1]; read-out: kc/Ki,c, PDC (+50 mM pyruvamide)): 87.7 M⁻¹ s⁻¹; kinact/KI ([2]; POX, from linear portion at high inhibitor concentrations (d)): 0.32 M⁻¹ s⁻¹; kinact/KI ([2]; POX, from linear portion at low inhibitor concentrations (c)): 0.0615 M⁻¹ s⁻¹ |
| C#CC(=O)C(=O)O [2-oxo-3-butynoic acid, 2-Oxo-3-butynoic acid] | irreversibly inactivates | no | 2110 | 0.00141 | 0.667 | 0.262 ± 0.069 | irreversibly inactivates | yes | Ki ([1]; PDC, read-out: Ki): 1100 µM; kinact ([1]; PDC, read-out: first order rate constant of inactivation (ki) (converted)): 0.0009 s⁻¹; kinact/KI ([1]; read-out: ki/Ki, PDC): 0.817 M⁻¹ s⁻¹; Ki ([2]; POX, read-out: Ki,c): 951 µM; kinact/KI ([2]; POX): 4.7 M⁻¹ s⁻¹; kinact ([2]; POX, read-out: ki (converted)): 0.00447 s⁻¹ |

Reference: US6204220A, “Substituted 2-oxo-3-alkynoic acids and methods of use thereof” (Rutgers, The State University of New Jersey, priority 1999, dated 2001)
